The text below walks through data of patent publication US12391674B2, “Heterocyclic compounds for the treatment of epilepsy” (OTSUKA PHARMACEUTICAL CO., LTD., priority 2018, dated 2025).

For one series, the system named is DBA/2 mice. In words: Audiogenic seizure model. It is filed as in vivo. Conditions: Mus musculus, DBA/2 mice, oral, auditory stimulation 1 hour after administration, read-out: Seizure suppression. The method, boiled down: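 Male and female DBA/2 mice (3 weeks old, 8/group) dosed orally at 30 mg/kg in 5% gum arabic; 1 h later exposed to 12.6 kHz, 100-110 dB tone for 1 min or until tonic seizure. Maximum seizure score (0–4) recorded; suppression rate graded A (≥90%), B (70–<90%), C (50–<70%).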

A further series concerns ICR mice. In words: Rotarod test (motor coordination). The series is classed as in vivo, mouse. The following applies: oral, rotarod 1 hour after administration. Here is the method: This test is performed to evaluate the effect of the compound on the motor coordination. In this test example, the example compounds shown in Table 4 below were used as test compounds. Male ICR mice (Japan SLC, Inc., 5-6 weeks, 8 per group) were trained to remain on a fixed speed (15 rpm) rotating rod of rotarod apparatus (Muromachi Kikai Co., Ltd.) for 2 minutes. […] After 1 hour of oral administration, the mice were again placed on the rod accelerated from 4 rpm to 40 rpm over 5 minutes and the latency to fall off the rod was recorded for 200 seconds. The falling latency of the compound administration group was calculated as a relative value relative to the average value of the falling latency in the solvent administration group. Here, a coordination disorder of 25% or less was expressed as “A”, and a coordination disorder of more than 25% and 50% or less was expressed as “B”.

Where only a bound is given, the exact number is not on record here.

Take `Cc1ccc(-c2cnc(Oc3ccccc3)nc2)nn1` [Example 2]: in the series on DBA/2 mice, the inhibition in vivo at 30 mg/kg is more than 90%. In addition, the Motor dysfunction entry in the series with ICR mice (dose 10 mg/kg) is reported as “A (a coordination disorder of 25% or less)”.
Take `c1ccc(Oc2ncc(-c3cnc4cc[nH]c4c3)cn2)cc1` [Example 137, 6-(2-Phenoxypyrimidin-5-Yl)-1H-Pyrrolo[3,2-b]Pyridine]: the inhibition in vivo at 30 mg/kg in the series with DBA/2 mice was more than 90%. The Motor dysfunction result in the series on ICR mice (dose 30 mg/kg) is listed as “A (a coordination disorder of 25% or less)”.
In the case of `c1ccc(Oc2ncc(-c3ccc4cncn4c3)cn2)cc1` [Example 155], in the series on DBA/2 mice, the inhibition in vivo at 5 mg/kg was more than 90%. In addition, in the series on ICR mice (dose 5 mg/kg), the Motor dysfunction result was “A (a coordination disorder of 25% or less)”.
`O=C1CCC(c2cnc(Oc3ccc(F)cc3)nc2)=NN1` [Example 98]: the inhibition in vivo at 3 mg/kg with DBA/2 mice (dose 3 mg/kg) is more than 90%. In the series on ICR mice (dose 3 mg/kg), the Motor dysfunction result is listed as “A (a coordination disorder of 25% or less)”.
Take `O=C1CCN(c2ccc(Oc3cccc(C(F)(F)F)c3)cc2)C(=O)N1` [Example 307]: the inhibition in vivo at 30 mg/kg in the series on DBA/2 mice was 70 to 90%. For the same molecule, the Motor dysfunction entry in the series on ICR mice (dose 30 mg/kg) is given as “A (a coordination disorder of 25% or less)”.
Turning to `FC(F)(F)c1cc(-c2cnc(Oc3ccccc3)nc2)ccn1` [Example 299], the inhibition in vivo at 5 mg/kg with DBA/2 mice was more than 90%. Also, the Motor dysfunction result in the series on ICR mice (dose 5 mg/kg) is given as “A (a coordination disorder of 25% or less)”.
As for `O=C1CCN(c2ccc(Cc3cccc(F)c3)cc2)C(=O)N1` [Example 305, 1-(4-(3-Fluorobenzyl)Phenyl)Dihydropyrimidine-2,4 (1H,3H)-Dione], the inhibition in vivo at 30 mg/kg with DBA/2 mice was more than 90%. In addition, the Motor dysfunction entry in the series with ICR mice (dose 30 mg/kg) was “A (a coordination disorder of 25% or less)”.
On the same counts, the results for `Cc1cc(Oc2cccc(OC(F)(F)F)c2)ccc1N1CCC(=O)NC1=O` [Example 336] are 70 to 90% and “A (a coordination disorder of 25% or less)”.
With `O=C1Cc2nc(-c3cnc(Oc4ccccc4)nc3)ccc2N1` [Example 172, 5-(2-Phenoxypyrimidin-5-Yl)-1H-Pyrrolo[3,2-b]Pyridin-2 (3H)-One], the inhibition in vivo at 5 mg/kg in the series on DBA/2 mice is more than 90%. For the same molecule, in the series with ICR mice (dose 5 mg/kg), the Motor dysfunction result is “A (a coordination disorder of 25% or less)”.
For the molecule `c1ccc(Oc2ncc(-c3cnc4ncnn4c3)cn2)cc1` [Example 188], the inhibition in vivo at 30 mg/kg in the series with DBA/2 mice is more than 90%. In addition, the Motor dysfunction entry in the series with ICR mice (dose 30 mg/kg) was “A (a coordination disorder of 25% or less)”.
On the same counts, the results for `O=C1CCN(c2ccc(Oc3cccc(F)c3)cc2)C(=O)N1` [Example 302, 1-(4-(3-Fluorophenoxy)Phenyl)Dihydropyrimidine-2,4 (1H,3H)-Dione] are more than 90% and “A (a coordination disorder of 25% or less)”.
In the case of `c1ccc(Oc2ncc(-c3ccc4cnnn4c3)cn2)cc1` [Example 173, 6-(2-Phenoxypyrimidin-5-Yl)-[1,2,3]Triazolo[1,5-a]Pyridine], in the series on DBA/2 mice, the inhibition in vivo at 5 mg/kg was more than 90%. Further, the Motor dysfunction result with ICR mice (dose 5 mg/kg) is on record as “A (a coordination disorder of 25% or less)”.
Consider `Cc1ncccc1-c1cnc(Oc2ccccc2)nc1` [Example 34], for which, in the series on DBA/2 mice, the inhibition in vivo at 30 mg/kg is more than 90%. Besides, the Motor dysfunction entry in the series with ICR mice (dose 30 mg/kg) is listed as “A (a coordination disorder of 25% or less)”.
`c1ccc(Oc2ncc(-c3ccc4nccn4n3)cn2)cc1` [Example 123, 6-(2-Phenoxypyrimidin-5-Yl) Imidazo[1,2-b]Pyridazine]: the inhibition in vivo at 5 mg/kg in the series on DBA/2 mice is more than 90%. Further, the Motor dysfunction result in the series on ICR mice (dose 5 mg/kg) is reported as “A (a coordination disorder of 25% or less)”.
On to `Nc1ccc(-c2cnc(Oc3ccccc3)nc2)cn1` [Example 36, 5-(2-Phenoxypyrimidin-5-Yl)Pyridin-2-Amine], for which the inhibition in vivo at 5 mg/kg with DBA/2 mice is more than 90%. Besides, the Motor dysfunction entry in the series on ICR mice (dose 5 mg/kg) was “A (a coordination disorder of 25% or less)”.
`FC(F)(F)c1ccc(-c2cnc(Oc3ccccc3)nc2)nn1` [Example 38, 3-(2-Phenoxypyrimidin-5-Yl)-6-(Trifluoromethyl)Pyridazine]: in the series on DBA/2 mice (dose 10 mg/kg), the inhibition in vivo at 10 mg/kg was more than 90%. The Motor dysfunction result in the series on ICR mice (dose 10 mg/kg) was “A (a coordination disorder of 25% or less)”.
As for `O=c1[nH]cccc1-c1cnc(Oc2ccccc2)nc1` [Example 107], the inhibition in vivo at 30 mg/kg in the series on DBA/2 mice was more than 90%. For the same molecule, the Motor dysfunction result with ICR mice (dose 30 mg/kg) is given as “A (a coordination disorder of 25% or less)”.
